These results are taken from ChEMBL document CHEMBL5046244, “Targeted Covalent Inhibition of Small CTD Phosphatase 1 to Promote the Degradation of the REST Transcription Factor in Human Cells” (J Med Chem, 2022).

The source made the active and inactive calls. The rule behind the calls is not given here.

The target in test [1] is T1, Tyrosine-protein phosphatase non-receptor type 2 (Homo sapiens) (UniProt P17706).
T1 sequence (whole entry): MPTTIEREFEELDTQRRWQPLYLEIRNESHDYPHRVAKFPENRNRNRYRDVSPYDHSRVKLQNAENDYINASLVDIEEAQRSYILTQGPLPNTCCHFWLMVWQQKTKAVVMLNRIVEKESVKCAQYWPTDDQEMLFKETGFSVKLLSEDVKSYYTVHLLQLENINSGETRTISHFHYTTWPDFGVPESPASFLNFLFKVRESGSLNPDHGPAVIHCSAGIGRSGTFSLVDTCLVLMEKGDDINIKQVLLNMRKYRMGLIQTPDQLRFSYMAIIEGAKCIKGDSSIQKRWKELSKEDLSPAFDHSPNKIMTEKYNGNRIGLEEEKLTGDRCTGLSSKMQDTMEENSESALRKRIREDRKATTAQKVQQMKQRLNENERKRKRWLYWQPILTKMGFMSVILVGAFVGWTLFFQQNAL
As to the kind of experiment: Inhibition of TCPTP (unknown origin) at 25 to 30 uM. The settings on record: dose 25-30 µM.

The species named for another test is Homo sapiens. As to the kind of experiment: Covalent inhibition of human SCP1 C181A mutant using pNPP as substrate preincubated for 0.5 to 8 hrs followed by substrate addition by absorbance based analysis. The settings on record: time 0.5-8 hrs.
Test [2] has as its target T2, Tyrosine-protein phosphatase non-receptor type 1 (Homo sapiens) (UniProt P18031).
T2 sequence (whole entry): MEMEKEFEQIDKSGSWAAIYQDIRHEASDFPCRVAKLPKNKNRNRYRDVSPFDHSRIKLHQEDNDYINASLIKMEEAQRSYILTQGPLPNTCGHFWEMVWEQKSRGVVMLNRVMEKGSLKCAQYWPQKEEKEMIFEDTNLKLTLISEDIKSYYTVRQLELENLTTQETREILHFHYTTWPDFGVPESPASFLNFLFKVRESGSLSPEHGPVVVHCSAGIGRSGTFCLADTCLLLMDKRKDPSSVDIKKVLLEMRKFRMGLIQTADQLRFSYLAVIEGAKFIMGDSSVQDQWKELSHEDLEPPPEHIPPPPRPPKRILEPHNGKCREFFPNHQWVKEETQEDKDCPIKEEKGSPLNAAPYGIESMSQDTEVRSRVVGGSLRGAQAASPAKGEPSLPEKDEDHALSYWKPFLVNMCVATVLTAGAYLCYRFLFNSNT
As to the kind of experiment: Inhibition of human PTP1B (1 to 321 residues) expressed in Escherichia coli BL21 (DE3) using pNPP as substrate at up to 200 uM preincubated for 4 hrs followed by substrate addition by absorption based analysis. The settings on record: dose microM <=200, time 4.0 hrs.

Test [3] can be described thus: Upregulation of CELSR3 mRNA expression in HEK293 cells assessed as fold increase by qRT-PCR analysis. Format: functional, Homo sapiens. On the technique in general: Real-time PCR tracks product formation cycle by cycle.
Test [4] addresses T3, Receptor-type tyrosine-protein phosphatase C (Homo sapiens) (UniProt P08575).
T3 sequence (whole entry): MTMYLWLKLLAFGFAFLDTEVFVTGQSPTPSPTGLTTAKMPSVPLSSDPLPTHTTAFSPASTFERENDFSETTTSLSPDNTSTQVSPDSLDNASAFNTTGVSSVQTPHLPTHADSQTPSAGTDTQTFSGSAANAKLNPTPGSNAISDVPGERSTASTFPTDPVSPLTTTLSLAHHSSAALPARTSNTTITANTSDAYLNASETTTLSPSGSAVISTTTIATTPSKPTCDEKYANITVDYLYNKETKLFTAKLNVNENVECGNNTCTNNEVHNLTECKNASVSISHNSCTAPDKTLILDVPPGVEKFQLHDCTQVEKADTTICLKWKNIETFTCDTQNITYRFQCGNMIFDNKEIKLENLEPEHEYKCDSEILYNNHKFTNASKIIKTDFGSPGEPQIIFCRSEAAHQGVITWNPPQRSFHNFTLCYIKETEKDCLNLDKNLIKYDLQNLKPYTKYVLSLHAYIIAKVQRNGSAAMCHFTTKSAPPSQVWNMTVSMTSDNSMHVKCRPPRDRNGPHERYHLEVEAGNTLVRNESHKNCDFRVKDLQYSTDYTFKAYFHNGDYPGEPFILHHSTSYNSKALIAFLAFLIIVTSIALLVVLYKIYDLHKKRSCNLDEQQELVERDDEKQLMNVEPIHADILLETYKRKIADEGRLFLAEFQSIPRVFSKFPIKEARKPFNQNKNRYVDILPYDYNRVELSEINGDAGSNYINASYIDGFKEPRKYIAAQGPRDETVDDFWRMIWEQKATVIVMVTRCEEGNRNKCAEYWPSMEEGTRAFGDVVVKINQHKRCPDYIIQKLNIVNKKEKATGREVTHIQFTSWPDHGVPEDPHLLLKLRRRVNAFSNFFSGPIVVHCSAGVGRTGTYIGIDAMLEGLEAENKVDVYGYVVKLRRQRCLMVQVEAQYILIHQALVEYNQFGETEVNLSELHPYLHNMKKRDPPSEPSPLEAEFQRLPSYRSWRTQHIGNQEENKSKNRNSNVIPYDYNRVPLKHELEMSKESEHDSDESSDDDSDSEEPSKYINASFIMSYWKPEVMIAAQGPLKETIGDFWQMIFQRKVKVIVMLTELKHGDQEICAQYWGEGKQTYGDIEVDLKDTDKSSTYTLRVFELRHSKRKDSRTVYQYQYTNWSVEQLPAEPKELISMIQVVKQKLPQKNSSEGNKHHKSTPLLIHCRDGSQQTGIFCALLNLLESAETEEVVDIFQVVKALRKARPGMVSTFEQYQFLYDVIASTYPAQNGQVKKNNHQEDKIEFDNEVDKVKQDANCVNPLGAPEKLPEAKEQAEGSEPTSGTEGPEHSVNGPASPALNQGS
As to the kind of experiment: Inhibition of CD45 (unknown origin) at 25 to 30 uM. The settings on record: dose 25-30 µM.

The nature of test [5]: Upregulation of DYRK1a mRNA expression in HEK293 cells assessed as fold increase by qRT-PCR analysis. Format: functional, Homo sapiens.
Test [6] in a line: Upregulation of USP37 mRNA expression in HEK293 cells assessed as fold increase by qRT-PCR analysis. Format: functional, Homo sapiens.
Test [7] is described as follows: Downregulation of REST protein expression in HEK293 cells at 10 uM incubated for 12 hrs by immunoblot analysis relative to control. Format: functional, Homo sapiens.
Test [8] can be described thus: Downregulation of REST protein expression in HEK293 cells at 10 uM incubated for 3 days with media replenishment for every 24 hrs by immunoblot analysis relative to control. The test is classed as functional, Homo sapiens. The note with it: time 3 day.
A further test deals with HEK293. As to the kind of experiment: Recovery of REST protein expression in HEK293 cells at 10 uM incubated for 2 days with media replenishment for every 24 hrs followed by compound washout and measured after 12 hrs by immunoblot analysis relative to control. Format: functional, Homo sapiens. The settings on record: time 2 day. A general note: Immunoblotting shows a protein as a band on a membrane.

Consider `O=C(NCCCNS(=O)(=O)c1ccc(OC(F)(F)F)cc1)C1=Cc2ccccc2S1(=O)=O`, for which the inhibition result in test [1], in test [2] and in test [4] was “inactive” throughout. Moreover, the inhibition entry in the test filed under Homo sapiens is “Active”. Further, the “fold change (FC)” value in test [3], in test [5] and in [6] was 2 each time. For the same molecule, the Activity in test [7] is given as 20%; in [8], 7%; in the test on HEK293, 24%.
